Values joined by “and” are separate entries in the source; they are usually repeats but may differ in a detail not shown here. Identical values can stand only once.
How the values were obtained:
Assay type in all cases: biochemical
IR = target: T1, IR (Homo sapiens, UniProt P06213); assay: In vitro IR enzymatic assay (ADP-Glo kinase assay); conditions: activated IR
T1 construct: purchased Millipore 14-803
Experimental: (§1) IC50 values of the compounds of the invention against IGF-1R and IR were measured in vitro using an ADP-Glo kinase assay Kit (Promega). […] Kinase reactions in both assays were conducted at 30° C. for 20 min with increasing concentrations of compounds of the invention.
Additional compounds of the invention were screened against activated IR.

c-Mer = target: T2, c-Mer (Homo sapiens, UniProt Q12866); assay: HotSpot kinase assay: c-Mer; conditions: 100 nM compound, read-out: % Enzyme Inhibition @ 100 nM c-MER
T2 sequence (Q12866 21-999): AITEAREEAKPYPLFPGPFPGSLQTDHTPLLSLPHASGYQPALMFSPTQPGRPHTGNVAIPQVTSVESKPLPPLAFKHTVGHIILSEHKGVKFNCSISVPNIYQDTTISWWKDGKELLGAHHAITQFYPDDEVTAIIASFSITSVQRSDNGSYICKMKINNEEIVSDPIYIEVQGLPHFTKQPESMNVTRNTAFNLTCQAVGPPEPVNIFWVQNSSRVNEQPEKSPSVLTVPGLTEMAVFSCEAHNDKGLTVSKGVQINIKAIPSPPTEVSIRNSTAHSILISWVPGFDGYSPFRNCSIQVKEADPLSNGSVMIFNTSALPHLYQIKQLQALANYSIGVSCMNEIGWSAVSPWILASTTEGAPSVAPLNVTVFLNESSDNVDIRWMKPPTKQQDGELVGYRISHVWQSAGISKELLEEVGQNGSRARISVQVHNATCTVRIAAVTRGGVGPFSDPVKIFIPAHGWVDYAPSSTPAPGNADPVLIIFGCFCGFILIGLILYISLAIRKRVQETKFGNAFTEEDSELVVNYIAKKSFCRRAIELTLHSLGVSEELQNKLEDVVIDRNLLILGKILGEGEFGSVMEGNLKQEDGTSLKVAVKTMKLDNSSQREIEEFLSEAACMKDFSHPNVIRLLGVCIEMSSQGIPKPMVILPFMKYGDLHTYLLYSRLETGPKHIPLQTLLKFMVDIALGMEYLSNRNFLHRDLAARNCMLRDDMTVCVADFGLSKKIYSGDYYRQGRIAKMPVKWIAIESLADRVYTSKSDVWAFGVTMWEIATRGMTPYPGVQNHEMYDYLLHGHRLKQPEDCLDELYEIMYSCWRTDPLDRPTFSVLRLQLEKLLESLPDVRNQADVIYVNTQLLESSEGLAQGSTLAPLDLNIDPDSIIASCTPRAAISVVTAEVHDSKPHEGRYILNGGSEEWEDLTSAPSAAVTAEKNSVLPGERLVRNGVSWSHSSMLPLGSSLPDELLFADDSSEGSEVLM
Experimental: (§2) Kinase assays were performed using additional compounds against a panel of 4 kinases: AXL; c-Met; c-Mer; and Trk C. Each compound was tested at a concentration of […] in single duplicate mode against the 4 kinases. Compounds were prepared as 10 mM stock solutions in DMSO prior to use in the assay. […] IC50 values and curve fits were obtained using Prism (GraphPad Software).
(§3) The screening was performed using the “HotSpot” assay platform. The assay measures the conversion of a peptide substrate to ^33P-labelled phosphorylated product. Briefly, specific kinase/substrate pairs along with required cofactors were prepared in reaction buffer. Specifically, the substrate was prepared in reaction buffer (20 mM Hepes, pH 7.5; 10 mM MgCl2; 1 mM EGTA; 0.02% Brij35; 0.02 mg/mL BSA; 0.1 mM Na3VO4; 2 mM DTT; 1% DMSO), followed by delivery of any required cofactor to the resulting substrate solution. The corresponding kinase was delivered into the substrate solution and the reaction mixture was mixed gently. Compound was delivered into the reaction mixture, followed 15-20 minutes later by addition of a mixture of ATP (Sigma, St. Louis Mo.) and ^33P ATP (specific activity 0.01 μCi/μL final; Perkin Elmer, Waltham, Mass.) to a final concentration of 10 μM-30 μM to initiate the reaction. […] The percent of enzyme inhibition was calculated based on the percent of remaining kinase activity.

IGF-1R = target: T3, IGF-1R (Homo sapiens, UniProt P08069); assay: In vitro IGF-1R enzymatic assay (ADP-Glo kinase assay); conditions: activated IGF-1R
T3 construct: purchased Millipore 14-802
T3 sequence (P08069 31-1367): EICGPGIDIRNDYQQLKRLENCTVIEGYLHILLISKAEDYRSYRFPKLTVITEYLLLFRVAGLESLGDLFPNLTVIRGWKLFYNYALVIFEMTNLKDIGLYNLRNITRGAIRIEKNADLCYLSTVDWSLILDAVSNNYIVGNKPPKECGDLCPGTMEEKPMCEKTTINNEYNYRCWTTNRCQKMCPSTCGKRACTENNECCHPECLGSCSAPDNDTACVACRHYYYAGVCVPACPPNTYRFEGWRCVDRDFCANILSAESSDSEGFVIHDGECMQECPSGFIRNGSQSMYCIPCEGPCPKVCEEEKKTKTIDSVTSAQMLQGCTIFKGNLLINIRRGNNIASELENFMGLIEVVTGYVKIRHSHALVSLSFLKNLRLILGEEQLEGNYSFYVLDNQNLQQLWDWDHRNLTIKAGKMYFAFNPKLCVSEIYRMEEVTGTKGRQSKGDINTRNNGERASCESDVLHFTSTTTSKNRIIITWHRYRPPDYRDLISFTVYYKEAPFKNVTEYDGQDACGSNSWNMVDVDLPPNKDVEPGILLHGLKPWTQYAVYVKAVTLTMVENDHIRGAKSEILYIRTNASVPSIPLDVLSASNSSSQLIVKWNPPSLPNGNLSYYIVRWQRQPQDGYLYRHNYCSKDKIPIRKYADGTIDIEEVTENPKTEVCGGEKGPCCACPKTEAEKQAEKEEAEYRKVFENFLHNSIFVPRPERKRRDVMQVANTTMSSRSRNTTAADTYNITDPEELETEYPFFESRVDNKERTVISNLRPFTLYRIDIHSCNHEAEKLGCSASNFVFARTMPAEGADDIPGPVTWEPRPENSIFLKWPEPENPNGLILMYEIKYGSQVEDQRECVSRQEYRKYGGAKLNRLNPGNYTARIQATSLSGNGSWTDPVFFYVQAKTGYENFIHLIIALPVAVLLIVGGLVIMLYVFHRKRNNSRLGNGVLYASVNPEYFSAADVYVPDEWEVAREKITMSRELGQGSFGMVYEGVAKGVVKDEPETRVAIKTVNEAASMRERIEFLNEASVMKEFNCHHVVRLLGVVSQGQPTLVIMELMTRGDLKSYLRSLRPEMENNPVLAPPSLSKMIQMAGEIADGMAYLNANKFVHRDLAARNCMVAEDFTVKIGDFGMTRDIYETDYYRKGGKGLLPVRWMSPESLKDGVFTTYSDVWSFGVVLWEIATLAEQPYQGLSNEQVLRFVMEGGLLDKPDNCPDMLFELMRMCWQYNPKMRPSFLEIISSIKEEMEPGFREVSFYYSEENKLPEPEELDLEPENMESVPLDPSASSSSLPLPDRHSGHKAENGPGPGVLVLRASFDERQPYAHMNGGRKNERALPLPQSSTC
Experimental: as §1
Additional compounds of the invention were screened against activated IGF-1R.

Trk B = Trk B (Homo sapiens, UniProt Q16620); assay: HotSpot kinase assay: Trk B; conditions: 100 nM compound, read-out: % Enzyme Inhibition @ 100 nM Trk B
Chain of Trk B (Q16620 32-822): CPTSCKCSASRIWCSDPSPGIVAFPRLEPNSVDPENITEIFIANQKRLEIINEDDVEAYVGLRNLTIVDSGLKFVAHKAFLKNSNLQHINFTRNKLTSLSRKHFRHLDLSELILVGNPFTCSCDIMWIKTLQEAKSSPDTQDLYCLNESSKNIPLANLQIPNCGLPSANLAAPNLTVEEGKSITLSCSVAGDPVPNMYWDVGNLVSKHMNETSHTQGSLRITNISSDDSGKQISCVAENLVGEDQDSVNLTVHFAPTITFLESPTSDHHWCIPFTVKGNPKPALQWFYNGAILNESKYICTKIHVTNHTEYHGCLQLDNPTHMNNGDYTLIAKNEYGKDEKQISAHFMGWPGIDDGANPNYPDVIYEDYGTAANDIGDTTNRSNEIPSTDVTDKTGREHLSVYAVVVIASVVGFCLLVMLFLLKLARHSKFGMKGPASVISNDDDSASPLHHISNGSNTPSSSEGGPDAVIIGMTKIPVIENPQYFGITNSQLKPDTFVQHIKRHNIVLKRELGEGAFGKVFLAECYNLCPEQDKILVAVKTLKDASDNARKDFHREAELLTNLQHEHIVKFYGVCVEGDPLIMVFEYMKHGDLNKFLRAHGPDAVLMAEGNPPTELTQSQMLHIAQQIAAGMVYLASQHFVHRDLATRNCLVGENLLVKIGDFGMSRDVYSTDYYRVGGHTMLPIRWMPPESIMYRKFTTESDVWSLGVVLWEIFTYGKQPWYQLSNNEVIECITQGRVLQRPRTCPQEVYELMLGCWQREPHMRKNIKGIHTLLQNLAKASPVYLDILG
Experimental: Each compound was tested at a concentration of 0.1 μM in single duplicate mode against the 3 kinases. Compounds were prepared as 10 mM stock solutions in DMSO prior to use in the assay. […] IC50 values and curve fits were obtained using Prism (GraphPad Software).
as §3

c-Met = c-Met (Homo sapiens, UniProt P08581); assay: HotSpot kinase assay: c-Met; conditions: 100 nM compound, read-out: % Enzyme Inhibition @ 100 nM c-MET
Experimental: as §2, §3

Trk C = Trk C (Homo sapiens, UniProt Q16288); assay: HotSpot kinase assay: Trk C
Chain of Trk C (Q16288 32-839): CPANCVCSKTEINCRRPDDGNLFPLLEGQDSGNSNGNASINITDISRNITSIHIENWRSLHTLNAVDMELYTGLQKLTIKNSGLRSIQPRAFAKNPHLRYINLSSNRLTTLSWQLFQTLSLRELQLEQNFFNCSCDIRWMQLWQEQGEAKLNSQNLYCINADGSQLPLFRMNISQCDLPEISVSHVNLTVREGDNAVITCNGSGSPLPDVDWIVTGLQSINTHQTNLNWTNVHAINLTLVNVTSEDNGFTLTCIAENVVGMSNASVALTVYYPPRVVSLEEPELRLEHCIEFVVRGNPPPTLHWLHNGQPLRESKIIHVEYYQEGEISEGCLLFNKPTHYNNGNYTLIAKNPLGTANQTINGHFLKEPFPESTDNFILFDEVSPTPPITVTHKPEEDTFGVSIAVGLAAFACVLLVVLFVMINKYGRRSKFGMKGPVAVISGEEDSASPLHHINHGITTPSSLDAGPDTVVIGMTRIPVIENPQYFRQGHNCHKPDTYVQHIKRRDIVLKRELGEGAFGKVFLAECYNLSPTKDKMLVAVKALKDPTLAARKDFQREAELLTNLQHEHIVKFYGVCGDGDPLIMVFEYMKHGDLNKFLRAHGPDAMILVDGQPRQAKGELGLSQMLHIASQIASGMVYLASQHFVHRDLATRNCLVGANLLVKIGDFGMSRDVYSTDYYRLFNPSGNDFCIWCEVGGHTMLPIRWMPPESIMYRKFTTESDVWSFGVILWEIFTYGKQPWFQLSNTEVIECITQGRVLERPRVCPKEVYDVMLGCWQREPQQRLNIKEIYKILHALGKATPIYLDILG

T1 sequence (P06213 28-1382): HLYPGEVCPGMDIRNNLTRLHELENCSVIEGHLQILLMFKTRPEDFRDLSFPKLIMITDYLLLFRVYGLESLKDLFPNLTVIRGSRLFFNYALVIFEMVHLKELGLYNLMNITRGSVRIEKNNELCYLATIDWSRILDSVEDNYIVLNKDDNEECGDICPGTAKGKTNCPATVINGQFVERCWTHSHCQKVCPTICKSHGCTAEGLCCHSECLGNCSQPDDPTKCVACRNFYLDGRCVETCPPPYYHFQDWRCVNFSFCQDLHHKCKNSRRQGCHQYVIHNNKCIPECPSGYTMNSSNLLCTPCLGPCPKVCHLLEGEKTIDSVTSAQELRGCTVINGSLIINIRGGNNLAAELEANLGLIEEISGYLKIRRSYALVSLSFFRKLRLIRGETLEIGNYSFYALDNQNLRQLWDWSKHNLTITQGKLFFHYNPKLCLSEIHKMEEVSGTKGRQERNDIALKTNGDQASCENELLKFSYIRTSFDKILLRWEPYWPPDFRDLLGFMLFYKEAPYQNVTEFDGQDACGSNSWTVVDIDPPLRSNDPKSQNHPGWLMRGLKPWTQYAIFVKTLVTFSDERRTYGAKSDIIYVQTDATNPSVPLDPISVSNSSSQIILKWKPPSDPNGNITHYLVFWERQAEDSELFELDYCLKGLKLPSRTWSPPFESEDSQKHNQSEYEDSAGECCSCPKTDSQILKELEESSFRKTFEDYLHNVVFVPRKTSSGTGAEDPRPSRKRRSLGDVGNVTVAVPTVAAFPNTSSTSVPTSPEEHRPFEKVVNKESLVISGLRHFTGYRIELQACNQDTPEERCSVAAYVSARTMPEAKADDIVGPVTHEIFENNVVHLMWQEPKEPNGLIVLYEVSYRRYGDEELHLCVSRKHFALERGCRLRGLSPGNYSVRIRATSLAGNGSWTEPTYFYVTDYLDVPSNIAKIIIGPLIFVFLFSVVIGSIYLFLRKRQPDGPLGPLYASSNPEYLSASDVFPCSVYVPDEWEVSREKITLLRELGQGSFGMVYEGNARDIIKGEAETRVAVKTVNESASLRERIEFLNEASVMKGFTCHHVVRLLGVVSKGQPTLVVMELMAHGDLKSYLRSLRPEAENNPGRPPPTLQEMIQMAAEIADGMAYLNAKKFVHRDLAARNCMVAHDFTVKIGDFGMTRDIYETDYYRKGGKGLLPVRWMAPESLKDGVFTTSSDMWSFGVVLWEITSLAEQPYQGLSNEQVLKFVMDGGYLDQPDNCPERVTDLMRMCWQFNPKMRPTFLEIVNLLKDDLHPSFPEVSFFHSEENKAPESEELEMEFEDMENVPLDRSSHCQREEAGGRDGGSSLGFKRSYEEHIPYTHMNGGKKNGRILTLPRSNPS

IC50 (IR): 1800 nM and 1700 nM
inhibition at 0.1 µM (c-Mer): < 39%
IC50 (IGF-1R): 3200 nM
inhibition at 0.03 µM (IGF-1R; 30 nM, average, read-out: % Inh @ 30 nM Avg): 9%
inhibition at 0.1 µM (Trk B): < 39%
inhibition at 0.1 µM (c-Met): < 39%
inhibition at 0.1 µM (Trk C; 100 nM compound, HotSpot, read-out: % Enzyme Inhibition @ 100 nM Trk C): > 60%
IC50 (Trk C; Trk C): 55.1 nM
selectivity for Trk C inhibition over IGF-1R (Trk C; Trk C over IGF-1R): about 60 fold
selectivity for Trk C inhibition over IR (Trk C; Trk C over IR): about 30 fold
SMILES: CC(C)c1cc(Nc2nc(N3CCCC3C(=O)N(C)C)nc3c2CCC3)n[nH]1 (single isomer, unassigned) [Compound 20b, 1-(4-(5-isopropyl-1H-pyrazol-3-ylamino)-6,7-dihydro-5H-cyclopenta[d]pyrimidin-2-yl)-N,N-dimethylpyrrolidine-2-carboxamide]

From patent US9499519B2, “Fused pyrimidine compounds and use thereof” (Medivation Technologies, Inc., priority 2012, dated 2016)
